The source of these data is ChEMBL document CHEMBL5518220, “The Discovery of 7-Isopropoxy-2-(1-methyl-2-oxabicyclo[2.1.1]hexan-4-yl)-N-(6-methylpyrazolo[1,5-a]pyrimidin-3-yl)imidazo[1,2-a]pyrimidine-6-carboxamide (BIO-7488), a Potent, Selective, and CNS-Penetrant IRAK4 Inhibitor for the Treatment of Ischemic Stroke” (J Med Chem, 2024).

Data set [1] is described as follows: Unbound brain-to-plasma concentration ratio in iv dosed rat measured at 4 to 24 hrs by LC-MS/MS analysis. The class given is ADME, organism-based. To be noted: brain and plasma, time 4-24 hrs, read-out: K(p,uu,brain).
The target in data set [2] is Voltage-gated inwardly rectifying potassium channel KCNH2 (Homo sapiens, UniProt Q12809). The data set can be described thus: Inhibition of hERG by patch clamp method. The class given is toxicity. (In general: hERG is a cardiac potassium channel; its block is linked to QT prolongation.)
Data set [3] can be described thus: Clearance in rat at 1 mg/kg, iv by LC-MS/MS analysis. Conditions: in vivo. It is filed as ADME, organism-based.
Data set [4] is described as follows: Lipophilicity, logD of compound in n-octanol and aqueous buffer at pH 7.4 by RP-HPLC method. The class given is physicochemical.
Data set [5] in a line: Unbound clearance in rat at 1 mg/kg, iv by LC-MS/MS analysis. The class given is ADME, organism-based. To be noted: in vivo.

pIC50: −log10 of the molar value.

Sequence of Voltage-gated inwardly rectifying potassium channel KCNH2 (Q12809 whole entry): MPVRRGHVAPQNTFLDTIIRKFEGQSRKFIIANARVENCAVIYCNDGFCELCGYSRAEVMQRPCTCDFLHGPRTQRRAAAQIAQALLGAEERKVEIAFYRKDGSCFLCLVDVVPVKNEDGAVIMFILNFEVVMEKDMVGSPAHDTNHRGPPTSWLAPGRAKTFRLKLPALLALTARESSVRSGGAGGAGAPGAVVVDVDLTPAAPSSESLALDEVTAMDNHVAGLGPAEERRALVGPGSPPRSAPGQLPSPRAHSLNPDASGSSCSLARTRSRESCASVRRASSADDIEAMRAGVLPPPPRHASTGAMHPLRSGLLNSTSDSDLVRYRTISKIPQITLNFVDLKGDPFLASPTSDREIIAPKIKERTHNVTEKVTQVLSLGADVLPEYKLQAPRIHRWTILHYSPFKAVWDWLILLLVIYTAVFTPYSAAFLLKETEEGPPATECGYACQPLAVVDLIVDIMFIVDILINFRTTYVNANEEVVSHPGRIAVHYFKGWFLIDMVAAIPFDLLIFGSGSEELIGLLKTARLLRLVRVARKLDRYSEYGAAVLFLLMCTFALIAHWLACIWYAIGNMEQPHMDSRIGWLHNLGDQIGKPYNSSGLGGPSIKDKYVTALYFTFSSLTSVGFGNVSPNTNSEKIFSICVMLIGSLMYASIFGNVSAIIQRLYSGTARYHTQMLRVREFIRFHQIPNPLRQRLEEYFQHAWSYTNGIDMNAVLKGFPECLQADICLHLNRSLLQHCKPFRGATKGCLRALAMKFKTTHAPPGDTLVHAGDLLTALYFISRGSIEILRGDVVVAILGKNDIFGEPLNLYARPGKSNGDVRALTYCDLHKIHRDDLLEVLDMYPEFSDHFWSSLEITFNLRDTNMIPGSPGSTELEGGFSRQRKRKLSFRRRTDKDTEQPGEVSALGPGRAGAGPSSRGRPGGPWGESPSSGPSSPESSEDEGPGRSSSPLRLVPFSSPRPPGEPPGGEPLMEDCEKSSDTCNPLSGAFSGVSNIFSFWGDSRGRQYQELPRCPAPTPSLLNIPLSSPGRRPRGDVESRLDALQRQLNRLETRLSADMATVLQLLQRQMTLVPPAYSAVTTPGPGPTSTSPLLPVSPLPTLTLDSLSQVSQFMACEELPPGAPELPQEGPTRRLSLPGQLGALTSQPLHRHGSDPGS

Consider `CC(C)Oc1nc2nc(C34COC(C)(C3)C4)cn2cc1C(=O)Nc1cnn2cc(F)cnc12`, for which, in data set [1], the Kp uu amounted to 0.2. Besides, the pIC50 – broadly, the negative decadic logarithm of the IC50, by convention in mol/L – in data set [2] was 4.74. In data set [3], the clearance (as a rule, a measure of how efficiently the substance is removed, as volume per time) came out at 7.2 mL/min/kg. Also, the logD (in general, lipophilicity at a set pH, counting ionised and neutral species) in data set [4] stood at 2.4. This molecule registered a CL free in data set [5] of 67 mL/min/kg.
